{"source": "patent US7375132B2", "about": "“Compounds and methods for inhibiting cellular responses to hypoxia” (University of Mississippi, priority 2004, dated 2008)", "key": {"HIF-1 [1]": {"tested_on": "HIF-1", "experiment": "Cell-based HIF-1 luciferase reporter assay (pTK-HRE3-luc), HIF-1 activation by hypoxia", "conditions": "Homo sapiens; T47D cells; 1% O2/5% CO2/94% N2, 16 hr; read-out: IC50, inhibition of hypoxia-induced HIF-1 activity", "source_text": "To identify functional antagonists of HIF-1, the present inventors have established a cell-based reporter assay for inhibitors of HIF-1 in hypoxia responsive human breast carcinoma T47D cells. Breast cancer was chosen as the target for this drug discovery effort, due to the high incidence of this disease and the urgent need to identify chemotherapeutic agents that target tumor hypoxia, the comprehensive knowledge base of breast cancer etiology, and the availability of well-studied human breast carcinoma cell lines as in vitro models. In addition, HIF-1α overexpression is associated with advanced stages of breast cancer and poor prognosis. The activity of HIF-1 is monitored using a luciferase reporter under the control of HRE from the erythropoietin gene (pTK-HRE3-luc). Natural product-rich extracts (dissolved in DMSO) are evaluated for activities that inhibit HIF-1 activation by hypoxia (about: 1% O2/5% CO2/94% N2).\nFor these studies, exponentially grown T47D cells are transiently transfected with the pTK-HRE3-luc and pGL3-control (Promega) reporters and plated into 96-well plates. […]\nAbout 24 hours after plating, a compound of Formula (I) is added to the transfected T47D cells. […] At the end of incubation, the cells are harvested and both luciferase activities determined using a Luciferase Assay System (Promega). […]"}, "HIF-1 [2]": {"tested_on": "HIF-1", "experiment": "Cell-based HIF-1 luciferase reporter assay, HIF-1 activation by iron chelator 1,10-phenanthroline (chemical hypoxia)", "parameters": "species or system human", "conditions": "T47D cells; 1,10-phenanthroline at 10 μM; compound about 3 μM (FIG. 3)", "procedure": "For these studies, exponentially grown T47D cells are transiently transfected with the pTK-HRE3-luc and pGL3-control (Promega) reporters and plated into 96-well plates. The pGL3-control reporter contains a modified reporter (cloned from Photinus pyralis) under the control of a SV40 early promoter and provides low-level, constitutive expression in mammalian cells as internal control.\nAbout 24 hours after plating, a compound of Formula (I) is added to the transfected T47D cells. Following incubation at about 37° C. for about 30 minutes, the cells are exposed to hypoxic conditions (1% O2/5% CO2/94% N2) or chemical hypoxia (iron chelator 1,10-phenanthroline at 10 μM) for 16 hr. At the end of incubation, the cells are harvested and both luciferase activities determined using a Luciferase Assay System (Promega). Luciferase activity from the pTK-HRE3-luc reporter was compared to luciferase activity from the pGL3-control reporter."}, "T47D cells [3]": {"tested_on": "T47D cells", "experiment": "Cell viability by Neutral Red assay under hypoxic conditions", "format": "cell-based, human", "conditions": "similar hypoxic conditions", "source_text": "The data presented in FIGS. 2 and 3 are averages from one representative experiment performed in quadruplicate and the bars represent standard errors. Accordingly, a compound of Formula (I) is shown to have a selective effect on physiological hypoxia-induced HIF-1 activation, relative to “chemical hypoxia”-induced HIF-1. To rule out false positives associated with cytotoxicity, the effects of Formula (I) on cell viability are examined."}, "secreted VEGF protein [4]": {"tested_on": "secreted VEGF protein", "experiment": "Secreted VEGF protein ELISA after hypoxic treatment", "format": "cell-based, human", "conditions": "concentrations of 1 μM and above; hypoxic treatment of T47D cells", "procedure": "(§1) Since secreted VEGF protein is the bioactive form, compounds that can reduce the level of secreted VEGF protein represent potential tumor angiogenesis inhibitors. Thus, compounds that can inhibit both hypoxic activation of HIF-1 and hypoxic induction of secreted VEGF protein represent “true” leads that target tumor hypoxia. The effects of compounds of the present invention on hypoxic induction of secreted VEGF protein are examined in T47D cells. Exponentially grown T47D cells were plated at the density of about 30,000 cells/well into 96-well plates. Compound treatment and hypoxic exposure were the same as described. Following incubation, secreted VEGF protein concentrations in the conditioned media are determined by ELISA (R & D Systems) and the data normalized by the number of viable cells. […] Therefore, in addition to its effect on HIF-1, compounds of the present invention have a potential therapeutic application as an agent to inhibit tumor angiogenesis."}, "secreted VEGF protein [5]": {"tested_on": "secreted VEGF protein", "experiment": "Secreted VEGF protein ELISA after 1,10-phenanthroline (chemical hypoxia)", "format": "cell-based, human", "conditions": "T47D cells pretreated with 1,10-phenanthroline (chemical hypoxia)", "procedure": "as §1"}, "HIF-1α protein": {"tested_on": "HIF-1α protein", "experiment": "Western blot of nuclear HIF-1α protein induced by hypoxia", "format": "cell-based, human", "conditions": "T47D cells; hypoxia about 4 hours; nuclear extract Western blot", "procedure": "Since the availability of the oxygen-regulated HIF-1α protein determines the biological activity of HIF-1 and hypoxia induces HIF-1α protein, the effect of compounds of the present invention on the induction of HIF-1α protein are examined in T47D cells. Briefly, exponentially grown T47D cells are exposed to a compound of Formula (I) for about 30 minutes. The incubation then continues for about 4 hours under hypoxic conditions. Nuclear extracts are prepared from control and treated cells. The HIF-1αand HIF-1β proteins in the nuclear extract samples are detected by Western blot, using HIF-1αand HIF-1β specific antibodies (Novus Biologicals). […] Significant inhibition of HIF-1α protein is observed at about 100 nM and complete inhibition is observed at about 1 μM. It is reasonable to conclude that the selectivity of the compounds of the present invention towards hypoxia-activated HIF-1 is caused by selective blockade of the hypoxic induction of HIF-1α protein."}, "T47D cells [6]": {"tested_on": "T47D cells", "experiment": "T47D cell survival under hypoxic conditions (FIG. 8)", "format": "cell-based, human"}, "[7]": {"tested_on": "mitochondrial electron transport pathway", "experiment": "Mitochondrial oxygen consumption (FIG. 9)", "format": "biochemical", "conditions": "in the presence of glutamate/malate, ADP; increasing amounts of compound", "procedure": "FIG. 9 is a graph showing that a compound of formula 1 inhibits the mitochondrial electron transport pathway. Mitochondrial oxygen consumption was measured, in this example, in the presence of glutamate/malate, ADP and increasing amounts of a compound of formula 1."}}, "data": [{"smiles": "CC1=CC(O)C(C(C)CCC2C(C)C3(C)CCC2(C)O3)CC1", "note": "(stereo not drawn) [Formula (I), LAURENDITERPENOL]", "values": [{"measurement": "IC50", "setting": "HIF-1 [1]", "result": "~400", "unit": "nM"}, {"measurement": "effect on iron chelator-induced HIF-1", "setting": "HIF-1 [2]", "result": "no statistically significant effect"}, {"measurement": "effect on T47D cell viability", "setting": "T47D cells [3]", "result": "marginal decrease"}, {"measurement": "decrease in level of secreted VEGF protein", "setting": "secreted VEGF protein [4]", "result": "about 60%"}, {"measurement": "effect on secreted VEGF protein levels", "setting": "secreted VEGF protein [5]", "result": "do not affect"}, {"measurement": "concentration at which complete inhibition of HIF-1α protein is observed", "setting": "HIF-1α protein", "result": "about 1 μM"}, {"measurement": "concentration at which significant inhibition of HIF-1α protein is observed", "setting": "HIF-1α protein", "result": "about 100 nM"}, {"measurement": "effect on T47D cell survival", "setting": "T47D cells [6]", "result": "significantly reduced"}, {"measurement": "effect on mitochondrial electron transport pathway (oxygen consumption)", "setting": "[7]", "result": "inhibits"}]}]}
